Source: PubChem BioAssay AID248 (DTP/NCI, 2004)
Values joined by “and” are separate entries in the source; they are usually repeats but may differ in a detail not shown here. Equal entries are not always repeated. Inconclusive results and toxic doses are left out. Rule as the data show it: active = T/C of 150% or more; inactive = T/C below 125%. Numbered stars: 1 amine (or outer) side, 2 acyl side, 3 side chain; on linkers, the order of the positions; unused ones are H or OH. Bridge positions count the residues as written; N and C are the ends. Square brackets hold non-standard residues; d marks the D form. Peptide text beside a SMILES is read from it. I, II: the chains in the order shown. Actinocin(9to1) = Cc1c2oc3c(C)ccc(C(=O)[*:1])c3nc-2c(C(=O)[*:2])c(N)c1=O; NMeV = CN[CH](C(=O)O)C(C)C; Pip = O=C(O)[CH]1CCCCN1; Sar = CNCC(=O)O

Test system: L1210 leukemia ip in BDF1 mice, survival T/C
Test: NCI In Vivo Anticancer Drug Screen. Data for tumor model L1210 Leukemia (intraperitoneal) in B6D2F1 (BDF1) mice
Conditions: endpoint: mean survival time, higher = longer survival
Summary of the method: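 Mice bearing the transplanted tumor received compound or vehicle. Survival of the treated group was divided by that of the vehicle-treated control group to give the ratio.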

[1] = dose: 100.0 mg/kg/injection, schedule: Q01DX001 (ip), vehicle: saline
[2] = dose: 50.0 mg/kg/injection, schedule: Q01DX009 (ip), vehicle: Klucel (hydroxypropylcellulose) (HPC)
[3] = dose: 100.0 mg/kg/injection, schedule: Q01DX009 (ip), vehicle: Klucel (hydroxypropylcellulose) (HPC)
[4] = dose: 100.0 mg/kg/injection, schedule: Q04DX003 (ip), vehicle: Klucel (hydroxypropylcellulose) (HPC)
[5] = dose: 200.0 mg/kg/injection, schedule: Q04DX003 (ip), vehicle: Klucel (hydroxypropylcellulose) (HPC)
[6] = dose: 400.0 mg/kg/injection, schedule: Q04DX003 (ip), vehicle: Klucel (hydroxypropylcellulose) (HPC)
[7] = dose: 100.0 mg/kg/injection, schedule: Q01DX001 (ip), vehicle: carboxymethylcellulose (CMC)
[8] = dose: 200.0 mg/kg/injection, schedule: Q01DX001 (ip), vehicle: carboxymethylcellulose (CMC)
[9] = dose: 400.0 mg/kg/injection, schedule: Q01DX001 (ip), vehicle: carboxymethylcellulose (CMC)
[10] = dose: 200.0 mg/kg/injection, schedule: Q01DX009 (ip), vehicle: Klucel (hydroxypropylcellulose) (HPC)
[11] = dose: 100.0 mg/kg/injection, schedule: Q04DX003 (ip), vehicle: saline with Tween-80
[12] = dose: 200.0 mg/kg/injection, schedule: Q04DX003 (ip), vehicle: saline with Tween-80
[13] = dose: 400.0 mg/kg/injection, schedule: Q04DX003 (ip), vehicle: saline with Tween-80
[14] = dose: 100.0 mg/kg/injection, schedule: Q04DX003 (ip), vehicle: saline
[15] = dose: 200.0 mg/kg/injection, schedule: Q01DX001 (ip), vehicle: saline
[16] = dose: 200.0 mg/kg/injection, schedule: Q04DX003 (ip), vehicle: saline
[17] = dose: 400.0 mg/kg/injection, schedule: Q01DX001 (ip), vehicle: saline
[18] = dose: 400.0 mg/kg/injection, schedule: Q04DX003 (ip), vehicle: saline

Measured: T/C

CN(C)N=Nc1ccccc1[N+](=O)[O-]
inactive: dose: 30.0 mg/kg/injection, schedule: Q01DX009 (ip), vehicle: saline with Tween-80 99 % of control | dose: 50.0 mg/kg/injection, schedule: Q01DX001 (ip), vehicle: saline 103 % of control | dose: 53.0 mg/kg/injection, schedule: Q01DX009 (ip), vehicle: saline with Tween-80 118 % of control | dose: 60.0 mg/kg/injection, schedule: Q01DX009 (ip), vehicle: saline with Tween-80 106 % of control | [1] 101 % of control | dose: 119.0 mg/kg/injection, schedule: Q04DX003 (ip), vehicle: saline 107 % of control | dose: 120.0 mg/kg/injection, schedule: Q01DX009 (ip), vehicle: saline with Tween-80 113 % of control | dose: 178.0 mg/kg/injection, schedule: Q04DX003 (ip), vehicle: saline 118 % of control | dose: 267.0 mg/kg/injection, schedule: Q04DX003 (ip), vehicle: saline 92 % of control

CN(C(=S)SSC(=S)N(C)c1ccccc1)c1ccccc1
inactive: dose: 25.0 mg/kg/injection, schedule: Q01DX009 (ip), vehicle: Klucel (hydroxypropylcellulose) (HPC) 96 % of control | [2] 101 % of control | [3] 101 % of control | [4] 105 % of control | [5] 89 % of control | [6] 93 % of control

Nc1cc2c(cc1Br)[nH]c(=O)c1ccccc12
inactive: [7] 98 % of control | [8] 96 % of control | [9] 93 % of control

CCOC(=O)c1nnc(-c2ccc(C)cc2)[nH]c1=O
inactive: [2] 95 % of control | [3] 95 % of control | [10] 106 % of control

CC(=O)NC1CCCCC1
inactive: [11] 95 % of control | [12] 98 % of control | [13] 92 % of control

CCCCCCN(/N=C\C(=O)O)C(N)=O
inactive: dose: 50.0 mg/kg/injection, schedule: Q01DX009 (ip), vehicle: saline with Tween-80 103 % of control | dose: 100.0 mg/kg/injection, schedule: Q01DX009 (ip), vehicle: saline with Tween-80 88 % of control | dose: 200.0 mg/kg/injection, schedule: Q01DX009 (ip), vehicle: saline with Tween-80 98 % of control

Nc1nc2c(c(-c3ccccc3)n1)CN(CCC(=O)O)C2=O
inactive: [1] 103 % of control | [14] 98 % of control | [15] 107 % of control | [16] 100 % of control | [17] 100 % of control | [18] 98 % of control

O=C(Nc1ccc(O)cc1)c1ccc(C(=O)Nc2ccc(O)cc2)cc1
inactive: dose: 15.0 mg/kg/injection, schedule: Q01DX Z (ip), vehicle: methylcellulose (MC) 112 % of control | dose: 30.0 mg/kg/injection, schedule: Q01DX Z (ip), vehicle: methylcellulose (MC) 93 % of control | dose: 60.0 mg/kg/injection, schedule: Q01DX Z (ip), vehicle: methylcellulose (MC) 98 % of control | dose: 120.0 mg/kg/injection, schedule: Q01DX Z (ip), vehicle: methylcellulose (MC) 98 % of control

O=C(NCCCl)NC1OC(CO)C(O)C(O)C1O (stereo not given)
inactive: [1] 107 % of control | [15] 101 % of control | [17] 96 % of control

Cc1cccc(NC(=O)CCc2ccc(Cl)cc2)n1
inactive: [1] 95 % of control

Cc1c2oc3c(C)ccc(C(=O)NC4C(=O)NC(C(C)C)C(=O)N5CCCCC5C(=O)N(C)CC(=O)N(C)C(C(C)C)C(=O)OC4C)c3nc-2c(C(=O)NC2C(=O)NC(C(C)C)C(=O)N3CCCCC3C(=O)N(C)CC(=O)N(C)C(C(C)C)C(=O)OC2C)c(N)c1=O (stereo not given) (I: TV[Pip][Sar][NMeV] / II: TV[Pip][Sar][NMeV]; ester I:1-I:C, II:1-II:C; linker I:N-II:N via Actinocin(9to1); configuration not given here)
inactive: dose: 0.5 mg/kg/injection, schedule: Q01DX001 (ip), vehicle: saline 105 % of control | dose: 0.5 mg/kg/injection, schedule: Q01DX009 (ip), vehicle: water 123 % of control | dose: 1.0 mg/kg/injection, schedule: Q01DX001 (ip), vehicle: saline 102 % of control | dose: 1.0 mg/kg/injection, schedule: Q01DX009 (ip), vehicle: water 104 % of control | dose: 1.8 mg/kg/injection, schedule: Q01DX001 (ip), vehicle: saline 116 % of control | dose: 2.0 mg/kg/injection, schedule: Q01DX001 (ip), vehicle: saline 112 % of control | dose: 2.6 mg/kg/injection, schedule: Q01DX001 (ip), vehicle: saline 109 % of control | dose: 6.0 mg/kg/injection, schedule: Q01DX001 (ip), vehicle: saline 103 % of control

CC(=O)Nc1c(Br)cc2c(c1Br)C(=O)c1ccccc1-2
inactive: [7] 97 % of control | [8] 87 % of control | [9] 97 % of control

Cc1cc(=O)[nH]c(N)n1
inactive: [4] 114 % of control | [11] 98 % of control | [5] 101 % of control | [12] 98 % of control | [6] 93 % of control | [13] 96 % of control

O=C1NC(=O)C2CC(Br)C(Br)CC12 (stereo not given)
inactive: dose: 2.5 mg/kg/injection, schedule: Q01DX009 (ip), vehicle: Klucel (hydroxypropylcellulose) (HPC) 100 % of control | dose: 2.5 mg/kg/injection, schedule: Q04DX003 (ip), vehicle: Klucel (hydroxypropylcellulose) (HPC) 98 % of control | dose: 5.0 mg/kg/injection, schedule: Q01DX009 (ip), vehicle: Klucel (hydroxypropylcellulose) (HPC) 100 % of control | dose: 5.0 mg/kg/injection, schedule: Q04DX003 (ip), vehicle: Klucel (hydroxypropylcellulose) (HPC) 100 % of control | dose: 10.0 mg/kg/injection, schedule: Q01DX009 (ip), vehicle: Klucel (hydroxypropylcellulose) (HPC) 100 % of control | dose: 10.0 mg/kg/injection, schedule: Q04DX003 (ip), vehicle: Klucel (hydroxypropylcellulose) (HPC) 98 % of control and 100 % of control

Cc1nn2c(C(=O)O)nnc2s1
inactive: [7] 93 % of control | [8] 98 % of control | [9] 93 % of control

COc1cc(C)c2cccc(OC)c2n1
inactive: [3] 114 % of control | [4] 105 % of control | [10] 108 % of control | [5] 90 % of control | dose: 400.0 mg/kg/injection, schedule: Q01DX009 (ip), vehicle: Klucel (hydroxypropylcellulose) (HPC) 98 % of control | [6] 94 % of control

CC1=C(/C=C/C(C)=C/C=C/C(C)=C/C=O)C(C)(C)CCC1
inactive: dose: 50.0 mg/kg/injection, schedule: Q01DX009 (ip), vehicle: steriod suspending solution 89 % of control and 95 % of control | dose: 100.0 mg/kg/injection, schedule: Q01DX009 (ip), vehicle: steriod suspending solution 92 % of control | dose: 200.0 mg/kg/injection, schedule: Q01DX001 (sc), vehicle: steriod suspending solution 96 % of control and 95 % of control | dose: 400.0 mg/kg/injection, schedule: Q01DX001 (sc), vehicle: steriod suspending solution 96 % of control

OC(COc1ccccc1)CN1CCN(c2ccccc2)CC1 (stereo not given)
inactive: dose: 100.0 mg/kg/injection, schedule: Q04DX002 (ip), vehicle: Klucel (hydroxypropylcellulose) (HPC) 98 % of control | dose: 200.0 mg/kg/injection, schedule: Q04DX002 (ip), vehicle: Klucel (hydroxypropylcellulose) (HPC) 102 % of control | dose: 400.0 mg/kg/injection, schedule: Q04DX002 (ip), vehicle: Klucel (hydroxypropylcellulose) (HPC) 95 % of control and 102 % of control

COc1ccc2c(c1O)-c1cc(O)cc3c1C(C2)NCC3 (stereo not given)
inactive: dose: 0.63 mg/kg/injection, schedule: Q04DX003 (ip), vehicle: DMSO 105 % of control | dose: 1.25 mg/kg/injection, schedule: Q04DX003 (ip), vehicle: DMSO 96 % of control | dose: 2.5 mg/kg/injection, schedule: Q04DX003 (ip), vehicle: DMSO 93 % of control

CCCC(C(=O)O)C(O)(CC(=O)O)C(=O)O (stereo not given)
inactive: [14] 101 % of control | [16] 101 % of control | [18] 95 % of control

CC1(C)OC2OC(COC(=O)c3ccccc3)C(O)C2O1 (stereo not given)
inactive: dose: 50.0 mg/kg/injection, schedule: Q01DX001 (ip), vehicle: carboxymethylcellulose (CMC) 98 % of control | [7] 101 % of control | [8] 104 % of control | [9] 98 % of control
